Patent US8242174B2 (priority 2007, dated 2012)

Target: Lethal factor protease (Bacillus anthracis, UniProt P15917)
Experiment: biochemical

Lethal factor protease, sequence (P15917 34-809 limits assumed): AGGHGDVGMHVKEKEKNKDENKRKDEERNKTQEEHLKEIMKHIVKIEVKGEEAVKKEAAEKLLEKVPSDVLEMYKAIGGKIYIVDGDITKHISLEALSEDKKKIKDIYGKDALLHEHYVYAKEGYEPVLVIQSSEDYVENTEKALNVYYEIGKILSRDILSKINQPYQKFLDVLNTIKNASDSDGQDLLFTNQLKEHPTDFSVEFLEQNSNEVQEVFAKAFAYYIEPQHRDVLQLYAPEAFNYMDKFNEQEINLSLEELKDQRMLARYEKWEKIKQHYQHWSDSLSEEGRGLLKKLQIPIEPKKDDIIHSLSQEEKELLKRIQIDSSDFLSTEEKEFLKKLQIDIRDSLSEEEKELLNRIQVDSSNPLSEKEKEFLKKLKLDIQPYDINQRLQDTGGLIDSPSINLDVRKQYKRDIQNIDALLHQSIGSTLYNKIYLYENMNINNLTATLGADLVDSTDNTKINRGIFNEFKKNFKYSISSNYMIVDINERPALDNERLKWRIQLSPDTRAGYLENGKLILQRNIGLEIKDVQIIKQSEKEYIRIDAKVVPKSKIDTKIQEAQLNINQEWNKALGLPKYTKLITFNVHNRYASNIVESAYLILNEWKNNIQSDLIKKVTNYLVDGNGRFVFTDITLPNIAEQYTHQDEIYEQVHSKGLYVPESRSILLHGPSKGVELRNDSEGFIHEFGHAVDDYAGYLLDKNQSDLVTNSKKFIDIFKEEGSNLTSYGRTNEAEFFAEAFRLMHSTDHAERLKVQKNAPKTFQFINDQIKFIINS

Compound	Ki [nM]
Cc1cc(N[C@H](CCCCNCc2cccc(-c3ccccc3)c2)C(=O)NO)ccc1F [Compound 168165, (R)-6-[(Biphenyl-3-ylmethyl)-amino]-2-(4-fluoro-3-methyl-phenylamino)-hexanoic acid hydroxyamide]	120
CCCCC(Nc1ccccc1)C(=O)NO (centres unmarked) [Compound 167210, 2-Phenylamino-hexanoic acid hydroxyamide]	203000
Cc1cc(N[C@H](CCCCNC(=O)CCC(=O)O)C(=O)NO)cc(C)c1F [Compound 167620, (R)—N-[5-(4-Fluoro-3,5-dimethyl-phenylamino)-5-hydroxycarbamoyl-pentyl]-succinamic acid]	3500
Cc1cc(N[C@H](CCCCN(Cc2ccc(F)cc2)Cc2ccc(F)cc2)C(=O)NO)ccc1F [Compound 167963, (R)-6-[Bis-(4-fluoro-benzyl)-amino]-2-(4-fluoro-3-methyl-phenylamino)-hexanoic acid hydroxyamide]	1100
CCCCC(Nc1ccc(F)cc1)C(=O)NO (centres unmarked) [Compound 167211, 2-(4-Fluoro-phenylamino)-hexanoic acid hydroxyamide]	81000
CCCCC(Nc1ccc(Cl)cc1)C(=O)NO (centres unmarked) [Compound 167256, 2-(4-Chloro-phenylamino)-hexanoic acid hydroxyamide]	187000
Cc1cc(N[C@H](CCCCNC(=O)OC(C)(C)C)C(=O)NO)ccc1F [Compound 167926, (R)-[5-(4-Fluoro-3-methyl-phenylamino)-5-hydroxycarbamoyl-pentyl]-carbamic acid tert-butyl ester]	2900
Cc1cc(N[C@H](CCCCNCc2ccccc2)C(=O)NO)cc(C)c1F [Compound 167736, (R)-6-Benzylamino-2-(4-fluoro-3,5-dimethyl-phenylamino)-hexanoic acid hydroxyamide]	110
Cc1cc(N[C@H](CCCCNC(=O)c2ccccc2)C(=O)NO)cc(C)c1F [Compound 167587, (R)—N-[5-(4-Fluoro-3,5-dimethyl-phenylamino)-5-hydroxycarbamoyl-pentyl]-benzamide]	970
CCC[C@@H](Nc1cc(C)c(F)c(C)c1)C(=O)NO [Compound 167391, (R)-2-(4-Fluoro-3,5-dimethyl-phenylamino)-pentanoic acid hydroxyamide]	500
CCCCC(Nc1ccc(C)cc1)C(=O)NO (centres unmarked) [Compound 167255, 2-p-Tolylamino-hexanoic acid hydroxyamide]	296000
Cc1cc(NCC(=O)NO)cc(C)c1F [Compound 167452, 2-(4-Fluoro-3,5-dimethyl-phenylamino)-N-hydroxy-acetamide]	4000
Cc1cc(N[C@H](CCCCNCc2ccc3sccc3c2)C(=O)NO)ccc1F [Compound 168182, (R)-6-[(Benzo[b]thiophen-5-ylmethyl)-amino]-2-(4-fluoro-3-methyl-phenylamino)-hexanoic acid hydroxyamide]	150
Cc1cc(N[C@H](CCCCN(Cc2ccc(F)cc2)Cc2ccc(F)cc2)C(=O)NO)cc(C)c1F [Compound 168047, (R)-6-[Bis-(4-fluoro-benzyl)-amino]-2-(4-fluoro-3,5-dimethyl-phenylamino)-hexanoic acid hydroxyamide]	790
CCCCC(Nc1cc(F)cc(F)c1)C(=O)NO (centres unmarked) [Compound 167807, 2-(3,5-Difluoro-phenylamino)-hexanoic acid hydroxyamide]	228000
Cc1cc(N[C@H](C(=O)NO)C(C)C)cc(C)c1F [Compound 167296, (5)-2-(4-Fluoro-3,5-dimethyl-phenylamino)-N-hydroxy-3-methyl-butyramide]	201000
CCCCC(Nc1ccc(F)c(OC)c1)C(=O)NO (centres unmarked) [Compound 167793, 2-(4-Fluoro-3-methoxy-phenylamino)-hexanoic acid hydroxyamide]	157000
Cc1cc(N[C@H](CCCCNS(=O)(=O)c2ccc(C(=O)O)cc2)C(=O)NO)cc(C)c1F [Compound 167613, (R)-4-[5-(4-Fluoro-3,5-dimethyl-phenylamino)-5-hydroxycarbamoyl-pentylsulfamoyl]-benzoic acid]	3660
Cc1cc(N[C@H](CCCCN)C(=O)NO)cc(C)c1F [Compound 167517, (R)-6-Amino-2-(4-fluoro-3,5-dimethyl-phenylamino)-hexanoic acid hydroxyamide]	250
CNc1cccc(S(=O)(=O)NCCCC[C@@H](Nc2cc(C)c(F)c(C)c2)C(=O)NO)c1 [Compound 167667, (R)-2-(4-Fluoro-3,5-dimethyl-phenylamino)-6-(3-methylamino-benzenesulfonylamino)-hexanoic acid hydroxyamide]	590
Cc1cc(N[C@H](COCc2ccccc2)C(=O)NO)cc(C)c1F [Compound 167379, (R)-3-Benzyloxy-2-(4-fluoro-3,5-dimethyl-phenylamino)-N-hydroxy-propionamide]	1440

Compound	Ki [nM]
CCCC[C@H](Nc1ccc(F)c(C)c1)C(=O)NO [Compound 167274, (S)-2-(4-Fluoro-3-methyl-phenylamino)-hexanoic acid hydroxyamide]	116000
Cc1cccc(CNCCCC[C@@H](Nc2cc(C)c(F)c(C)c2)C(=O)NO)c1 [Compound 167698, (R)-2-(4-Fluoro-3,5-dimethyl-phenylamino)-6-(3-methyl-benzylamino)-hexanoic acid hydroxyamide]	160
Cc1cc(N[C@@H](C(=O)NO)c2ccccc2)cc(C)c1F [Compound 167425, (R)-2-(4-Fluoro-3,5-dimethyl-phenylamino)-N-hydroxy-2-phenyl-acetamide]	480
Cc1cc(N[C@H](CCCCNS(=O)(=O)c2ccccc2)C(=O)NO)cc(C)c1F [Compound 167615, (R)-6-Benzenesulfonylamino-2-(4-fluoro-3,5-dimethyl-phenylamino)-hexanoic acid hydroxyamide]	840
Cc1cc(N[C@H](CCCCNCc2ccc(F)c(F)c2)C(=O)NO)ccc1F [Compound 167990, (R)-6-(3,4-Difluoro-benzylamino)-2-(4-fluoro-3-methyl-phenylamino)-hexanoic acid hydroxyamide]	100
Cc1cc(N[C@H](CCCCNCc2cccc([N+](=O)[O-])c2)C(=O)NO)cc(C)c1F [Compound 167737, (R)-2-(4-Fluoro-3,5-dimethyl-phenylamino)-6-(3-nitro-benzylamino)-hexanoic acid hydroxyamide]	70
Cc1cc(N[C@H](CCCCNS(=O)(=O)c2cccc([N+](=O)[O-])c2)C(=O)NO)cc(C)c1F [Compound 167622, (R)-2-(4-Fluoro-3,5-dimethyl-phenylamino)-6-(3-nitro-benzenesulfonylamino)-hexanoic acid hydroxyamide]	150
Cc1cc(N[C@H](CCCCNS(=O)(=O)c2cc(C)c(F)c(C)c2)C(=O)NO)cc(C)c1F [Compound 167530, (R)-6-(4-Fluoro-3,5-dimethyl-benzenesulfonylamino)-2-(4-fluoro-3,5-dimethyl-phenylamino)-hexanoic acid hydroxyamide]	370
Cc1cc(CCCCCC[C@@H](Nc2cc(C)c(F)c(C)c2)C(=O)NO)ccc1F [Compound 168118, (R)-2-(4-Fluoro-3,5-dimethyl-phenylamino)-8-(4-fluoro-3-methyl-phenyl)-octanoic acid hydroxyamide]	7200
Cc1cc(N[C@H](CCCCNC(=O)Cc2cccc(Oc3ccccc3)c2)C(=O)NO)cc(C)c1F [Compound 167611, (R)-2-(4-Fluoro-3,5-dimethyl-phenylamino)-6-[2-(3-phenoxy-phenyl)-acetylamino]-hexanoic acid hydroxyamide]	740
Cc1cc(N[C@H](CCCCNC(C)c2ccc(F)cc2)C(=O)NO)ccc1F (stereo partly drawn) [Compound 168010, (R)-2-(4-Fluoro-3-methyl-phenylamino)-6-[1-(4-fluoro-phenyl)-ethylamino]-hexanoic acid hydroxyamide]	70
Cc1cc(N[C@H](CCCCNC(=O)OC(C)(C)C)C(=O)NO)cc(C)c1F [Compound 167561, (R)-[5-(4-Fluoro-3,5-dimethyl-phenylamino)-5-hydroxycarbamoyl-pentyl]-carbamic acid tert-butyl ester]	710
CCCCC(Nc1cc(C)c(OC)c(C)c1)C(=O)NO (centres unmarked) [Compound 167325, 2-(4-Methoxy-3,5-dimethyl-phenylamino)-hexanoic acid hydroxyamide]	30400
Cc1cc(N[C@H](CCCCNCc2cc(C)c(F)c(C)c2)C(=O)NO)ccc1F [Compound 167968, (R)-6-(4-Fluoro-3,5-dimethyl-benzylamino)-2-(4-fluoro-3-methyl-phenylamino)-hexanoic acid hydroxyamide]	100
Cc1cc(N[C@H](CCCCNCC2CCCCC2)C(=O)NO)ccc1F [Compound 168146, (R)-6-(Cyclohexylmethyl-amino)-2-(4-fluoro-3-methyl-phenylamino)-hexanoic acid hydroxyamide]	250
Cc1cc(N[C@H](CCCCN(Cc2ccccc2)Cc2ccccc2)C(=O)NO)cc(C)c1F [Compound 167738, (R)-6-Dibenzylamino-2-(4-fluoro-3,5-dimethyl-phenylamino)-hexanoic acid hydroxyamide]	430
Cc1cc(C(=O)NCCCC[C@@H](Nc2cc(C)c(F)c(C)c2)C(=O)NO)ccc1F [Compound 167551, (R)-4-Fluoro-N-[5-(4-fluoro-3,5-dimethyl-phenylamino)-5-hydroxycarbamoyl-pentyl]-3-methyl-benzamide]	390
Cc1cc(N[C@H](CCCCNCc2cc3ccccc3o2)C(=O)NO)ccc1F [Compound 168166, (R)-6-[(Benzofuran-2-ylmethyl)-amino]-2-(4-fluoro-3-methyl-phenylamino)-hexanoic acid hydroxyamide]	180
CCCC(CCC)CNCCCC[C@@H](Nc1ccc(F)c(C)c1)C(=O)NO [Compound 168167, (R)-2-(4-Fluoro-3-methyl-phenylamino)-6-(2-propyl-pentylamino)-hexanoic acid hydroxyamide]	250
Cc1cc(CN(CCCC[C@@H](Nc2ccc(F)c(C)c2)C(=O)NO)Cc2ccc(F)c(C)c2)ccc1F [Compound 167966, (R)-6-[Bis-(4-fluoro-3-methyl-benzyl)-amino]-2-(4-fluoro-3-methyl-phenylamino)-hexanoic acid hydroxyamide]	6700
